Test results as given in US11673894B2, “Imidazopyrimidines and triazolopyrimidines as A2A / A2B inhibitors” (Incyte Corporation, priority 2018, dated 2023).

Tests used:
Adenosine A2A receptor = Adenosine A2A receptor (Homo sapiens (Human), UniProt P29274); assay: A2A Tag-lite HTRF Assay; conditions: Tag-lite Adenosine A2A labeled cells; A2A Receptor Red antagonist fluorescent ligand 12.5 nM; one-site competitive binding model; read-out: A2A_Ki
Description: The final concentration of DMSO was 1%.

[1] = target: human adenosine A2B receptor (Homo sapiens (Human), UniProt P29275); assay: Adenosine A2B Receptor Cyclic AMP GS Assay; format: cell-based; conditions: HEK-293 cells expressing human A2B receptor; agonist NECA at 12 nM; cAMP accumulation (FRET); read-out: A2B_cAMP_EC50
In short: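 HEK-293 cells stably expressing human A2B receptor were pretreated 30 min at room temperature with compound, then stimulated with 12 nM NECA for 60 min. cAMP accumulation was measured by HTRF (665/620 ratio). Values were fitted from percent of control versus log concentration.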

Sequence of Adenosine A2A receptor (P29274 whole entry): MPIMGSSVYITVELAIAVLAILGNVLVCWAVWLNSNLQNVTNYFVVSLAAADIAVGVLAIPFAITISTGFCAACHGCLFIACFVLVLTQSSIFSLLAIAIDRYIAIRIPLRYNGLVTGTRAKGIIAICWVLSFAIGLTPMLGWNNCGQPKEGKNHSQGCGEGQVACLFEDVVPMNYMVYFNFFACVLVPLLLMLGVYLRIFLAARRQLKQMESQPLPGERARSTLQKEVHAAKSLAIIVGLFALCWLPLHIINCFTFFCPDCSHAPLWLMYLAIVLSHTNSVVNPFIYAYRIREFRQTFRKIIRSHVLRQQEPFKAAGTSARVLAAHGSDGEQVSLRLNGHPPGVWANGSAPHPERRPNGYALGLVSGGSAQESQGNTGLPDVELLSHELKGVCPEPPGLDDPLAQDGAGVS
Sequence of human adenosine A2B receptor (P29275 whole entry): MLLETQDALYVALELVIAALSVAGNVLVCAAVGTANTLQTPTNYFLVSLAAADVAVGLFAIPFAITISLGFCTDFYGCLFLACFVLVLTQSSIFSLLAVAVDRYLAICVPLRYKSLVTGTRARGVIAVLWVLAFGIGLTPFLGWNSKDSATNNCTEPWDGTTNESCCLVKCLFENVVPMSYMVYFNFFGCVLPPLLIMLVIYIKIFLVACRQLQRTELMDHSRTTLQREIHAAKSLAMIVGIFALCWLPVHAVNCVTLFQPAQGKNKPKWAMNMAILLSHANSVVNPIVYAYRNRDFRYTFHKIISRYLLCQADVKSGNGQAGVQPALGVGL

Row | Structure (SMILES) | Ki (Adenosine A2A receptor) | EC50 [1]
1 | N#Cc1cccc(-c2nc(N)n3nc(Cc4c(F)cccc4CN4CCCS4(=O)=O)nc3c2-c2ccncn2)c1 [Example 86, 3-(5-Amino-2-(2-((1,1-dioxidoisothiazolidin-2-yl)methyl)-6-fluorobenzyl)-8-(pyrimidin-4-yl)-[1,2,4]triazolo[1,5-c]pyrimidin-7-yl)benzonitrile] | < 10 nM | < 10 nM
2 | CN1CC(=O)N(Cc2cccc(F)c2Cc2nc3c(-c4ccncn4)c(-c4cccc(C#N)c4)nc(N)n3n2)C1=O [Example 87, 3-(5-Amino-2-(2-fluoro-6-((3-methyl-2,5-dioxoimidazolidin-1-yl)methyl)benzyl)-8-(pyrimidin-4-yl)-[1,2,4]triazolo[1,5-c]pyrimidin-7-yl)benzonitrile] | < 10 nM | < 10 nM
3 | N#Cc1cccc(-c2nc(N)n3nc(Cc4ncccc4F)nc3c2-c2ccncn2)c1 [Example 88, 3-(5-Amino-2-((3-fluoropyridin-2-yl)methyl)-8-(pyrimidin-4-yl)-[1,2,4]triazolo[1,5-c]pyrimidin-7-yl)benzonitrile] | < 10 nM | < 10 nM
4 | Cc1ncoc1-c1c(-c2cccc(C#N)c2)nc(N)n2nc(Cc3cccc(C(F)(F)F)n3)nc12 [Example 89, 3-(5-Amino-8-(4-methyloxazol-5-yl)-2-((6-(trifluoromethyl)pyridin-2-yl)methyl)-[1,2,4]triazolo[1,5-c]pyrimidin-7-yl)benzonitrile] | < 10 nM | < 10 nM
5 | Cc1ncoc1-c1c(-c2cccc(C#N)c2F)nc(N)n2nc(Cc3ccccn3)nc12 [Example 90, 3-(5-Amino-8-(4-methyloxazol-5-yl)-2-(pyridin-2-ylmethyl)-[1,2,4]triazolo[1,5-c]pyrimidin-7-yl)-2-fluorobenzonitrile] | < 10 nM | < 10 nM
6 | Cc1ncoc1-c1c(-c2cccc(C#N)c2)nc(N)n2nc(Cc3ncccc3CO)nc12 [Example 91, 3-(5-Amino-2-((3-(hydroxymethyl)pyridin-2-yl)methyl)-8-(4-methyloxazol-5-yl)-[1,2,4]triazolo[1,5-c]pyrimidin-7-yl)benzonitrile] | < 10 nM | < 10 nM
7 | Cc1ncoc1-c1c(-c2cccc(C#N)c2)nc(N)n2nc(Cc3ccn(C)n3)nc12 [Example 92, 3-(5-Amino-2-((1-methyl-1H-pyrazol-3-yl)methyl)-8-(4-methyloxazol-5-yl)-[1,2,4]triazolo[1,5-c]pyrimidin-7-yl)benzonitrile] | < 10 nM | < 10 nM
8 | Cn1ccc(Cc2nc3c(-c4cnco4)c(-c4cccc(C#N)c4)nc(N)n3n2)n1 [Example 93, 3-(5-Amino-2-((1-methyl-1H-pyrazol-3-yl)methyl)-8-(oxazol-5-yl)-[1,2,4]triazolo[1,5-c]pyrimidin-7-yl)benzonitrile] | < 10 nM | < 10 nM
9 | Cc1cccnc1COc1nc2c(-c3ccncn3)c(-c3cccc(C#N)c3)nc(N)n2n1 [Example 94, 3-(5-Amino-2-((3-methylpyridin-2-yl)methoxy)-8-(pyrimidin-4-yl)-[1,2,4]triazolo[1,5-c]pyrimidin-7-yl)benzonitrile] | < 10 nM | < 10 nM
10 | Cc1cccc(COc2nc3c(-c4ccncn4)c(-c4cccc(C#N)c4)nc(N)n3n2)n1 [Example 95, 3-(5-Amino-2-((6-methylpyridin-2-yl)methoxy)-8-(pyrimidin-4-yl)-[1,2,4]triazolo[1,5-c]pyrimidin-7-yl)benzonitrile] | < 10 nM | < 10 nM
11 | N#Cc1cccc(-c2nc(N)n3nc(COc4ccccc4C#N)nc3c2-c2ccncn2)c1 [Example 96, 2-((5-Amino-7-(3-cyanophenyl)-8-(pyrimidin-4-yl)-[1,2,4]triazolo[1,5-c]pyrimidin-2-yl)methoxy)benzonitrile] | < 10 nM | < 10 nM
12 | Cc1cccnc1CNc1nc2c(-c3ccncn3)c(-c3cccc(C#N)c3)nc(N)n2n1 [Example 97, 3-(5-Amino-2-(((3-methylpyridin-2-yl)methyl)amino)-8-(pyrimidin-4-yl)-[1,2,4]triazolo[1,5-c]pyrimidin-7-yl)benzonitrile] | < 10 nM | < 10 nM
